According to publication PMC2673089 (Journal of pharmaceutical sciences, 2008):
Marks after values point to notes of the source that are not given here.

Legend:
DA uptake = conditions: read-out: DA Uptake IC50; mean ± SEM; cited from earlier work
MDCK-MDR1 monolayers [1] = test: Bidirectional transport and verapamil inhibition across MDCK-MDR1 monolayers; type: in vitro ADME; conditions: MDCK-MDR1
Caco-2 monolayers [2] = test: Bidirectional transport and verapamil inhibition across Caco-2 monolayers; type: in vitro ADME; conditions: 0.1 mM, absence of verapamil, mean ± SD (n = 3)
[3] = system: extracellular levels of DA in the nucleus accumbens (NAc); conditions: cited from earlier work
MDCK-MDR1 monolayers [4] = conditions: MDCK-MDR1 monolayer characterization; cited from earlier work
Caco-2 monolayers [5] = conditions: Caco-2 monolayer characterization; cited from earlier work
[6] = 0.1 mM, absence of verapamil, mean ± SD (n = 3)

CN1[C@@H]2CC[C@H]1C[C@@H](OC(c1ccccc1)c1ccccc1)C2 [BZT, benztropine, reference compound]
IC50 (DA uptake): 0.403 ± 0.115 µM

C[N+]1(C)C2CCC1CC(OC(c1ccc(F)cc1)c1ccc(F)cc1)C2 (stereo not drawn) [JHW 025, N-(dimethyl)-3α-[(bis-4′-fluorophenyl)methoxy]tropane, reference compound]
Efflux Ratio (MDCK-MDR1 monolayers [1]; 0.1 mM, Papp(B-A)/Papp(A-B)): 1.5
Papp A-B (MDCK-MDR1 monolayers [1]; [6]): 5.00 ± 0.31 × 10^−6 cm/s
Papp B-A (MDCK-MDR1 monolayers [1]; [6]): 7.39 ± 1.17 × 10^−6 cm/s
Enhancement ratio of A-B transport by verapamil (MDCK-MDR1 monolayers [1]; verapamil 200 μM): 1.2
Papp A-B (Caco-2 monolayers [2]): <0.34 ^a × 10^−6 cm/s
Papp B-A (Caco-2 monolayers [2]): 1.8 ± 0.25 × 10^−6 cm/s

COC(=O)[C@H]1[C@@H](OC(=O)c2ccccc2)C[C@@H]2CC[C@H]1N2C [cocaine]
DA increase ([3]; 3 mg/kg i.v., similar microdialysis technique, ref Baumann et al.[41]): six-fold
DA elevation ([3]; 5 mg/kg i.v., identical stereotaxic coordinates): 10 fold

CC(C)NCC(O)COc1cccc2ccccc12 (centres unmarked) [propranolol]
Papp of marker compounds (MDCK-MDR1 monolayers [4]): 243.3 nm/s
Papp of marker compounds (Caco-2 monolayers [5]): 133.4 nm/s
